Assay results: ChEMBL document CHEMBL1142285, “Indeno[1,2-c]isoquinolines as enhancing agents on all-trans retinoic acid-mediated differentiation of human myeloid leukemia cells” (2008)

Columns and labels:
Type in all cases: functional, cell-based
[1] = test system: HL-60; assay: Induction of differentiation in human HL60 cells after 72 hrs by NBT assay
[2] = test system: NB-4; assay: Induction of differentiation in human NB4 cells after 72 hrs by NBT assay
[3] = test system: HL-60; assay: Antiproliferative activity against human HL60 cells after 72 hrs by MTT assay
[4] = test system: NB-4; assay: Antiproliferative activity against human NB4 cells after 72 hrs by MTT assay

Measured: Activity

COc1ccc(Cn2c3c(c4cc(C)ccc4c2=O)C(C)c2ccccc2-3)cc1 (centres undefined)
active: [1] Dose-dependent effect | [2] Dose-dependent effect | [3] Dose-dependent effect | [4] Dose-dependent effect
